The supplement of paper PMC5762512

Key:
Assay in all cases: IC50 cell viability (Alamar Blue, 96 h)
HS-27 = test system: HS-27
Experimental: (§1)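 Cells in log-phase growth were seeded in 96-well plates and treated with drug for 96 h at 37°C using 8-point serial dilutions from 0.0025 to 10 µM. Viability was read by Alamar Blue fluorescence after 6 h and normalised to positive and vehicle (DMSO) controls. IC50 values were fitted in ActivityBase; the value given is the mean of two independent experiments.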

TC797 = test system: TC797
Experimental: as §1

PER-891 = test system: PER-891
Experimental: as §1

HCC2429 = test system: HCC2429
Experimental: as §1

P896-CL = test system: P896-CL
Experimental: as §1

14169 = test system: 14169
Experimental: as §1

RPMI2650 = test system: RPMI2650
Experimental: as §1

PER-535 = test system: PER-535
Experimental: as §1

WI-38 = test system: WI-38
Experimental: as §1

PER-624 = test system: PER-624
Experimental: as §1

11060 = test system: 11060
Experimental: as §1

A549 = test system: A549
Experimental: as §1

PER-403 = test system: PER-403
Experimental: as §1

PER-704 = test system: PER-704
Experimental: as §1

PER-536 = test system: PER-536
Experimental: as §1

TY82 = test system: TY82
Experimental: as §1

10326 = test system: 10326
Experimental: as §1

CAKI-1 = test system: CAKI-1
Experimental: as §1

8645 = test system: 8645
Experimental: as §1

PER-712 = test system: PER-712
Experimental: as §1

| Compound | IC50 cell viability (HCC2429) [nM] | IC50 cell viability (A549) [nM] | IC50 cell viability (HS-27) [nM] | IC50 cell viability (TC797) [nM] | IC50 cell viability (PER-891) [nM] | IC50 cell viability (P896-CL) [nM] | IC50 cell viability 14169 [nM] | IC50 cell viability (RPMI2650) [nM] | IC50 cell viability (PER-535) [nM] | IC50 cell viability (WI-38) [nM] | IC50 cell viability (PER-624) [nM] | IC50 cell viability 11060 [nM] | IC50 cell viability (PER-403) [nM] | IC50 cell viability (PER-704) [nM] | IC50 cell viability (PER-536) [nM] | IC50 cell viability (TY82) [nM] | IC50 cell viability 10326 [nM] | IC50 cell viability (CAKI-1) [nM] | IC50 cell viability 8645 [nM] | IC50 cell viability (PER-712) [nM] |
| --- | --- | --- | --- | --- | --- | --- | --- | --- | --- | --- | --- | --- | --- | --- | --- | --- | --- | --- | --- | --- |
| CN(Cc1cnc2nc(N)nc(N)c2n1)c1ccc(C(=O)N[C@@H](CCC(=O)O)C(=O)O)cc1 [Methotrexate] | 93.3 | 53.9 | > 10000 | 267 | > 10000 | > 10000 | 65.1 | > 10000 | > 10000 | > 10000 | 25.7 | 869 | 30.9 | 106 | > 10000 | 136 | > 10000 | > 10000 | 99 | 132 |
| C/C(=C\c1csc(C)n1)[C@@H]1C[C@@H]2O[C@]2(C)CCC[C@H](C)[C@H](O)[C@@H](C)C(=O)C(C)(C)[C@@H](O)CC(=O)O1 [Epothilone B] | < 2.5 | < 2.5 | < 2.5 | 3.41 | 5010 | 3.22 | < 2.5 | > 10000 | 3.27 | < 2.5 | < 2.5 | < 2.5 | < 2.5 | 3.8 | 7.59 | 9.79 | < 2.5 | 16.2 | < 2.5 | < 2.5 |
| O=C1c2c(O)ccc(O)c2C(=O)c2c(NCCNCCO)ccc(NCCNCCO)c21 [Mitoxantrone] | 10 | < 2.5 | 41.7 | 141 | 266 | 10.9 | < 2.5 | 1280 | 10.7 | 108 | 12.8 | 7.36 | 5.31 | 142 | 144 | 314 | < 2.5 | 1120 | < 2.5 | 570 |
| CC[C@@]1(O)C(=O)OCc2c1cc1n(c2=O)Cc2cc3c(CN(C)C)c(O)ccc3nc2-1 [Topotecan] | 17.5 | 118 | 4570 | 24.3 | 728 | 272 | 17.7 | 391 | 107 | 2480 | 11.7 | 14.6 | 5.01 | 312 | 81.6 | 116 | 13.3 | 622 | 17.4 | 243 |
| C#Cc1cccc(Nc2ncnc3cc(OCCOC)c(OCCOC)cc23)c1 [Erlotinib] | > 10000 | 2740 | 4470 | > 10000 | 7100 | 2580 | > 10000 | > 10000 | > 10000 | 3120 | 3260 | 8680 | 8770 | > 10000 | > 10000 | > 10000 | > 10000 | > 10000 | 1160 | > 10000 |
| Cc1csc(-c2nnc(Nc3ccc(Oc4ncccc4-c4ccnc(N)n4)cc3)c3ccccc23)c1 [AMG-900] | 7.26 | 6.42 | > 10000 | > 10000 | > 10000 | 5020 | 3.94 | > 10000 | 112 | 7360 | > 10000 | 98.1 | < 2.5 | > 10000 | > 10000 | > 10000 | 3.75 | > 10000 | > 10000 | > 10000 |

Second part, led by results:

| IC50 cell viability (HCC2429) [nM] | IC50 cell viability (A549) [nM] | Compound | IC50 cell viability (HS-27) [nM] | IC50 cell viability (TC797) [nM] | IC50 cell viability (PER-891) [nM] | IC50 cell viability (P896-CL) [nM] | IC50 cell viability 14169 [nM] | IC50 cell viability (RPMI2650) [nM] | IC50 cell viability (PER-535) [nM] | IC50 cell viability (WI-38) [nM] | IC50 cell viability (PER-624) [nM] | IC50 cell viability 11060 [nM] | IC50 cell viability (PER-403) [nM] | IC50 cell viability (PER-704) [nM] | IC50 cell viability (PER-536) [nM] | IC50 cell viability (TY82) [nM] | IC50 cell viability 10326 [nM] | IC50 cell viability (CAKI-1) [nM] | IC50 cell viability 8645 [nM] | IC50 cell viability (PER-712) [nM] |
| --- | --- | --- | --- | --- | --- | --- | --- | --- | --- | --- | --- | --- | --- | --- | --- | --- | --- | --- | --- | --- |
| < 2.5 | < 2.5 | CC(=O)O[C@@]12CO[C@@H]1C[C@H](O)[C@@]1(C)C(=O)[C@H](O)C3=C(C)[C@@H](OC(=O)[C@H](O)[C@@H](NC(=O)OC(C)(C)C)c4ccccc4)C[C@@](O)([C@@H](OC(=O)c4ccccc4)[C@H]21)C3(C)C [Docetaxel] | < 2.5 | 3.88 | > 10000 | 3.08 | < 2.5 | > 10000 | 6.25 | 2.82 | < 2.5 | < 2.5 | < 2.5 | 4.11 | 16.4 | 9.64 | < 2.5 | 5000 | < 2.5 | 3.2 |
| 551 | 287 | COc1ccccc1S(=O)(=O)Nc1ccc2c(c1)CN(C)C(=O)N2 [PFI-1] | 2940 | > 10000 | 5220 | 2810 | 444 | > 10000 | 2190 | 3340 | 2820 | 804 | 623 | 2160 | 5980 | 1580 | 175 | 7020 | 751 | 1350 |
| 51.1 | 13.1 | COc1cccc2c1C(=O)c1c(O)c3c(c(O)c1C2=O)C[C@@](O)(C(C)=O)C[C@@H]3O[C@H]1C[C@H](N)[C@H](O)[C@H](C)O1 [Daunorubicin] | 90.1 | 153 | 475 | 201 | 9.69 | 285 | 218 | 87.8 | 22 | 29.5 | 14.9 | 110 | 339 | 227 | 42.1 | 1030 | 12.2 | 384 |
| < 2.5 | 6.14 | CC[C@]1(O)C[C@H]2CN(CCc3c([nH]c4ccccc34)[C@@](C(=O)OC)(c3cc4c(cc3OC)N(C=O)[C@H]3[C@@](O)(C(=O)OC)[C@H](OC(C)=O)[C@]5(CC)C=CCN6CC[C@]43[C@@H]65)C2)C1 [Vincristine] | 7.19 | 5.35 | 27.5 | 8.77 | < 2.5 | > 10000 | 6.92 | 8.35 | 7.58 | < 2.5 | < 2.5 | 6.18 | 20.7 | 8.25 | < 2.5 | 5020 | < 2.5 | 8.68 |
| 96.9 | 16.5 | C[C@H]1O[C@@H](O[C@H]2[C@@H](O)C[C@H](O[C@H]3[C@@H](O)C[C@H](O[C@H]4CC[C@@]5(C)[C@H](CC[C@@H]6[C@@H]5C[C@@H](O)[C@]5(C)[C@@H](C7=CC(=O)OC7)CC[C@]65O)C4)O[C@@H]3C)O[C@@H]2C)C[C@H](O)[C@@H]1O [Digoxin] | 58.9 | 226 | 103 | 158 | 52 | 97.6 | 218 | 34 | 99.7 | 86.2 | 57.7 | 200 | 598 | 83.7 | 41.5 | 323 | 82.5 | 299 |
